The source of these data is the OPERA property sets (Mansouri et al. 2018).

Values after ≈ are worked out from the molar mass of the structure shown.

The conditions of the series: for solubility: 21 °C.

For `CC(=O)Oc1ccccc1C(=O)OCC(=O)N(C)CC(N)=O`, the logP was -0.46.

In turn, `CC(=O)Oc1ccccc1C(=O)Oc1ccccc1` came in with a logP of 2.88 and a solubility of 78 µM (≈ 20 µg/mL).

For the molecule `CC(=O)Oc1ccccc1C(=O)OCC(=O)N(C(C)C)C(C)C`, the lipophilicity (logP) stood at 2.03.

`CSCOC(=O)c1ccccc1OC(C)=O` came in with a logP of 1.94 and a solubility of 2290 µM (≈ 550 µg/mL).

Take `CC(=O)Oc1ccccc1C(=O)OCC(=O)NCC(N)=O`: the logP is -0.43.

Molecule `CCOC(=O)CN(C)C(=O)COC(=O)c1ccccc1OC(C)=O` showed a logP of 1.67.

Molecule `CC(=O)OCOC(=O)c1ccccc1OC(C)=O` registered a logP of 1.42.

`CCOC(=O)COC(=O)c1ccccc1OC(C)=O` gave a logP of 1.67.

Molecule `CC(=O)Oc1ccccc1C(=O)OCC(=O)N(C)C` gave a logP of 0.38.

With `CC(=O)Oc1ccccc1C(=O)OCS(C)=O` (stereo not given), the logP stood at 0.11.

The molecule `CCNC(=O)COC(=O)c1ccccc1OC(C)=O` registered a logP of 0.9.

Molecule `CC(=O)Nc1ccc(OC(=O)c2ccccc2OC(C)=O)cc1` returned a logP of 2.15 and a solubility of 63.8 µM (≈ 20 µg/mL).
